Measured values from patent publication US20240252677A1, “ONE-COMPONENT DELIVERY SYSTEM FOR NUCLEIC ACIDS” (The Trustees of the University of Pennsylvania, priority 2021, published 2024).

Columns and labels:
[1] = Cryo-TEM of dendrimersomes from glycerol-JDs, number of vesicle layers; assay type: physicochemical; conditions: for lamellarity of DSs (in words) / calculated percentages of unilamellar DSs in the selected images: cryo-TEM; for calculated percentages of unilamellar DSs in the selected images: JD 1 mg mL-1 in water; for Number of vesicle layers: 1 (count of vesicles): vesicles with 1 layer; for Number of vesicle layers: 2 (count of vesicles): vesicles with 2 layers; for Number of vesicle layers: 3 (count of vesicles): vesicles with 3 layers; for Number of vesicle layers: 4 (count of vesicles): vesicles with 4 layers; for Number of vesicle layers: 5 (count of vesicles): vesicles with 5 layers; for Number of vesicle layers: 6 (count of vesicles): vesicles with 6 layers; for Number of vesicle layers: 7 (count of vesicles): vesicles with 7 layers; for Number of vesicle layers: 8 (count of vesicles): vesicles with 8 layers; for Number of vesicle layers: 9 (count of vesicles): vesicles with 9 layers; for Number of vesicle layers: 10 (count of vesicles): vesicles with 10 layers; for Number of vesicle layers: 11 (count of vesicles): vesicles with 11 layers; for Number of vesicle layers: 12 (count of vesicles): vesicles with 12 layers
Description: The red numbers in FIG. 85 stand for the unilamellar while yellow numbers for multilamellar DSs. The calculated percentages of unilamellar DSs in the selected images for 2R, 2S and 2rac are 91%, 70% and 13%, respectively. Same trend was found for cryo-TEM of 1R, 1S and 1rac (FIG. 86 through FIG. 88). […] Achiral DSs are all unilamellar.
Cryogenic Transmission Electron Microscopy (Cryo-TEM). Morphologies of the Janus Dendrimer assemblies were characterized by cryo-TEM. Images were acquired on a Carl Zeiss Libra 120 microscope. Samples were prepared by plunge freezing of aqueous dispersion on plasma-treated lacey grids. The vitrified specimens were then transferred to a Gatan-910 cryoholder. The 5 images were recorded at −170° C. with an acceleration voltage of 120 kV. The concentration of JD in the aqueous solution of DSs was 1 mg mL-^1.

[2] = DLS size of dendrimersomes assembled from glycerol-JDs in water at different concentrations; assay type: physicochemical; conditions: for Dh (nm): size distribution by intensity
Method: Assembly of all eight glycerol-JDs was performed by injection of their ethanol solution (50 μL) into 1 mL of Milli-Q water. The size distribution and structure of resulting DSs were analyzed by DLS (FIG. 84) and cryo-TEM. […] In a certain concentration range the size of DSs increased with the concentration of JDs injected in water or buffer. […] The dimensions of the assemblies were identical when the concentrations of the JDs in water were identical. Sizes of assemblies from mixtures of 1R and 1S in different ratios (1:3, 1:1 and 3:1), were also identical (FIG. 84). […] With the exception of the rotation of polarized light, the physical properties of enantiomers and their racemic mixtures must be identical.
Dynamic light scattering (DLS). Hydrodynamic diameters (Dh) of the self-assemblies of dendrimer molecules and their size distributions were measured on a Malvern Instruments particle sizer (Zetasizer® Nano S, Malvern Instruments, UK) equipped with 4 mW He—Ne laser (633 nm) and avalanche photodiode positioned at […] to the beam and temperature controlled cuvette holder. Experiments were performed at 25° C. in triplicate. The distribution of radius was intensity.

SMILES	Number of vesicle layers: 1 (count of vesicles) [1]	Number of vesicle layers: 2 (count of vesicles) [1]	Number of vesicle layers: 3 (count of vesicles) [1]	Number of vesicle layers: 4 (count of vesicles) [1]	Number of vesicle layers: 5 (count of vesicles) [1]	Number of vesicle layers: 6 (count of vesicles) [1]	PDI ([2]; JD 0.025 mg·mL−1 in water)	Dh (nm) ([2]; JD 0.025 mg·mL−1 in water)	PDI ([2]; JD 0.05 mg·mL−1 in water)	Dh (nm) ([2]; JD 0.05 mg·mL−1 in water)	PDI ([2]; JD 0.1 mg·mL−1 in water)	Dh (nm) ([2]; JD 0.1 mg·mL−1 in water)	PDI ([2]; JD 0.15 mg·mL−1 in water)	Dh (nm) ([2]; JD 0.15 mg·mL−1 in water)	PDI ([2]; JD 0.2 mg·mL−1 in water)	Dh (nm) ([2]; JD 0.2 mg·mL−1 in water)	PDI ([2]; JD 0.25 mg·mL−1 in water)	Dh (nm) ([2]; JD 0.25 mg·mL−1 in water)	PDI ([2]; JD 0.3 mg·mL−1 in water)	Dh (nm) ([2]; JD 0.3 mg·mL−1 in water)	further results
CCCCCCCCCCCCOc1cc(OCCCCCCCCCCCC)cc(C(=O)OCC(C)(COC(=O)c2cc(OCCCCCCCCCCCC)cc(OCCCCCCCCCCCC)c2)C(=O)OC[C@H](COC(=O)c2cc(OCCOCCOCCOC)c(OCCOCCOCCOC)c(OCCOCCOCCOC)c2)OC(=O)c2cc(OCCOCCOCCOC)c(OCCOCCOCCOC)c(OCCOCCOCCOC)c2)c1 [Compound 2S, (3,5)-12G1-BMPA-GC-(S)-(3,4,5)-3EO-G1]	63	13	9	1	0	0	0.465	106	0.422	107	0.291	112	0.212	119	0.203	128	0.223	132	0.235	153	lamellarity of DSs (in words) [1]: unilamellar DSs predominantly; calculated percentages of unilamellar DSs in the selected images [1]: 70%; Number of vesicle layers: 7 (count of vesicles) [1]: 1; Number of vesicle layers: 8 (count of vesicles) [1]: 1; Number of vesicle layers: 9 (count of vesicles) [1]: 0; Number of vesicle layers: 10 (count of vesicles) [1]: 3; Number of vesicle layers: 11 (count of vesicles) [1]: 1; Number of vesicle layers: 12 (count of vesicles) [1]: 0; PDI ([2]; JD 0.4 mg·mL−1 in water): 0.205; Dh (nm) ([2]; JD 0.4 mg·mL−1 in water): 165 nm; PDI ([2]; JD 0.5 mg·mL−1 in water): 0.295; Dh (nm) ([2]; JD 0.5 mg·mL−1 in water): 288 nm
CCCCCCCCCCCCOc1cc(OCCCCCCCCCCCC)cc(C(=O)OCC(C)(COC(=O)c2cc(OCCCCCCCCCCCC)cc(OCCCCCCCCCCCC)c2)C(=O)OC[C@@H](COC(=O)c2cc(OCCOCCOCCOC)c(OCCOCCOCCOC)c(OCCOCCOCCOC)c2)OC(=O)c2cc(OCCOCCOCCOC)c(OCCOCCOCCOC)c(OCCOCCOCCOC)c2)c1 [Compound 2R, (3,5)-12G1-BMPA-GC-(R)-(3,4,5)-3EO-G1]	202	2	5	1	3	2	0.416	107	0.368	108	0.258	111	0.257	125	0.242	134	0.186	139	0.227	152	lamellarity of DSs (in words) [1]: unilamellar DSs predominantly; calculated percentages of unilamellar DSs in the selected images [1]: 91%; Number of vesicle layers: 7 (count of vesicles) [1]: 0; Number of vesicle layers: 8 (count of vesicles) [1]: 0; Number of vesicle layers: 9 (count of vesicles) [1]: 0; Number of vesicle layers: 10 (count of vesicles) [1]: 0; Number of vesicle layers: 11 (count of vesicles) [1]: 1; Number of vesicle layers: 12 (count of vesicles) [1]: 0; PDI ([2]; JD 0.4 mg·mL−1 in water): 0.263; Dh (nm) ([2]; JD 0.4 mg·mL−1 in water): 180 nm; PDI ([2]; JD 0.5 mg·mL−1 in water): 0.497; Dh (nm) ([2]; JD 0.5 mg·mL−1 in water): 319 nm
CCCCCCCCCCCCOc1cc(OCCCCCCCCCCCC)cc(C(=O)OC[C@H](COC(=O)C(C)(COC(=O)c2cc(OCCOCCOCCOC)c(OCCOCCOCCOC)c(OCCOCCOCCOC)c2)COC(=O)c2cc(OCCOCCOCCOC)c(OCCOCCOCCOC)c(OCCOCCOCCOC)c2)OC(=O)c2cc(OCCCCCCCCCCCC)cc(OCCCCCCCCCCCC)c2)c1 [Compound 1R, (3,5)-12G1-GC-(R)-BMPA-(3,4,5)-3EO-G1]	61	15	4	1	1	0	0.455	82	0.336	87	0.197	110	0.195	124	0.175	135	0.202	140	0.190	148	PDI ([2]; JD 0.4 mg·mL−1 in water): 0.228; Dh (nm) ([2]; JD 0.4 mg·mL−1 in water): 178 nm; PDI ([2]; JD 0.5 mg·mL−1 in water): 0.326; Dh (nm) ([2]; JD 0.5 mg·mL−1 in water): 233 nm
CCCCCCCCCCCCOc1cc(OCCCCCCCCCCCC)cc(C(=O)OCC(COC(=O)C(C)(COC(=O)c2cc(OCCOCCOCCOC)c(OCCOCCOCCOC)c(OCCOCCOCCOC)c2)COC(=O)c2cc(OCCOCCOCCOC)c(OCCOCCOCCOC)c(OCCOCCOCCOC)c2)OC(=O)c2cc(OCCCCCCCCCCCC)cc(OCCCCCCCCCCCC)c2)c1 (racemic) [Compound 1rac, (3,5)-12G1-GC-(rac)-BMPA-(3,4,5)-3EO-G1]	7	6	2	1	1	3	0.398	86	0.277	109	0.268	123	0.232	128	0.216	136	0.238	142	0.203	153	PDI ([2]; JD 0.4 mg·mL−1 in water): 0.275; Dh (nm) ([2]; JD 0.4 mg·mL−1 in water): 174 nm; PDI ([2]; JD 0.5 mg·mL−1 in water): 0.240; Dh (nm) ([2]; JD 0.5 mg·mL−1 in water): 281 nm
